Consider two compounds from patent publication US9718833B2, “Tritoqualine hydrochloride in crystalline form and a process for obtaining same” (priority 2013, dated 2017).

≈ marks a conversion by molar mass, not a printed value.

The nature of one data set: physchem. The note with it: organic solvent or mixture.
For data set [1] the following is noted: in water at room temperature; background statement; cited from earlier work.
For data set [2], the target named is T1, L-histidine decarboxylase (Homo sapiens, UniProt P19113).
T1 sequence (P19113 1-662): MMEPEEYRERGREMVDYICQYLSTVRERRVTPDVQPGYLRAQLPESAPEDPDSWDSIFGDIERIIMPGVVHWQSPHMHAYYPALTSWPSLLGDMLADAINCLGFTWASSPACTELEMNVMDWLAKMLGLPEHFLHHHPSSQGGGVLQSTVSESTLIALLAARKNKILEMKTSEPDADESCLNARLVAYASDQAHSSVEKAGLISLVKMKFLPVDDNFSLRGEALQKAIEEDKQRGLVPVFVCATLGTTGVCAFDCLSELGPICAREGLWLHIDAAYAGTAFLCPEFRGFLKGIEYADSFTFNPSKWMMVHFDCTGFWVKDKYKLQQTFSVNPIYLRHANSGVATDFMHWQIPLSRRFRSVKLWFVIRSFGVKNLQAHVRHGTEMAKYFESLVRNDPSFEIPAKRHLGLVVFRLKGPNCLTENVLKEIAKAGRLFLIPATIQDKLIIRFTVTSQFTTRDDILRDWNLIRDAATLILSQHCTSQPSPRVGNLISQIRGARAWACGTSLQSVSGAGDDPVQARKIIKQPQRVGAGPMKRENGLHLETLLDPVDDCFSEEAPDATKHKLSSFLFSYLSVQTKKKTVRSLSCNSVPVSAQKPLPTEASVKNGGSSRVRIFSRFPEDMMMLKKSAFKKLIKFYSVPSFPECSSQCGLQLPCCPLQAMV
As to conditions: background statement; cited from earlier work.

Another data set in a line: Solubility in ethanol. As to conditions: at 20° C.
The conditions of data set [3]: hydrochloride formed in situ by addition of hydrochloric acid to tritoqualine in solution; background statement; cited from earlier work.
A short description of data set [4]: Solubility in organic solvents (ethers, alcohols, glycols, ketones). The class given is physicochemical.

The melting point is the temperature, or range, at which the solid turns liquid. By solubility is commonly meant the dissolved amount per volume that the medium holds. As to `CCOc1c(N)c2c(c(OCC)c1OCC)C(C1c3c(cc4c(c3OC)OCO4)CCN1C)OC2=O` (centres unmarked) [Base, 7-amino-4,5,6-triethoxy-3-(4-methoxy-6-methyl-7,8-dihydro-5H-[1,3]dioxolo[4,5-g]isoquinoline-5-yl)-3H-isobenzofuran-1-one], the melting point was determined as 184 °C. For the same compound, the solubility in the data set “physchem” (20 °C) turned out to be 2.5 mg/mL (≈ 4.99 mM). Moreover, in “physchem”, the solubility was 50 mg/mL (≈ 99.9 mM). Further, the Solubility in water in data set [1] is 100 ppm. Moreover, the “Activity as enzymatic inhibitor of L-histidine decarboxylase” value in data set [2] is listed as “very low”.
In “Solubility in ethanol”, tritoqualine hydrochloride came in with a Solubility in ethanol of over 300 g/l at. The “Behaviour in aqueous solution at pH>3.0” value in the data set “Solubility in water” was “precipitates”. Also, the “Half lifetime in an aqueous solution” value in data set [3] was “a few hours”. Besides, in data set [4] (alcohols and glycols), the “Solubility in alcohols and glycols compared with tritoqualine base” value is “much more soluble than tritoqualine base”. In addition, the Solubility in ethers result in data set [4] (ethers) is recorded as “very little soluble or even insoluble”. For the same compound, the “Solubility in primary alcohols, acetone and methyl ethyl ketone” value in data set [4] (primary alcohols, acetone, methyl ethyl ketone) is “soluble”.
